Measured values: US20240197711A1, “Combination Therapy for Cancer Treatment” (THE REGENTS OF THE UNIVERSITY OF MICHIGAN, priority 2021, published 2024)
Entries after “also recorded” stand apart in the source; their conditions may differ.

Tests used:
[1] = test system: RKO BRAF V600E colorectal cancer tumors; assay: RKO xenograft, Compound A with or without radiation, tumor volume; type: in vivo, mice; conditions: mt-BRAF RKO, 100 mg/kg daily oral, 2 GY/day five days a week for 3 weeks
Description: (§1) Mice bearing locally advanced xenograft (PC9, RKO, or UMSCC74B) were treated with vehicle (control); daily oral gavage of Compound A (also referred to as DPI-503), radiation plus vehicle, or a combination of daily oral gavage of Compound A and radiation. Tumor volumes were measured using calipers at least three times a week.

[2] = test system: cells driven by mt-KRAS, mt-BRAF, and mt-EGFR; assay: Oxidative stress in cells, hydrogen peroxide levels as marker; type: cell-based; conditions: six hours post treatment
From the text: Signs of oxidative stress in cells were investigated after addition of increasing amounts of Compound A with hydrogen peroxide levels being chosen as a marker of increased oxidative stress. […] Consideration was given to ways of exploiting oxidative stress in these tumor types. Oxidative stress both contributes towards causing DNA damage, and makes DNA damage more difficult to repair. So a combination of an ODDER (e.g., Compound A) with a DNA damaging agent, such as radiation, may result in useful therapeutic regimen. Compound A and radiation was examined in vivo xenograft experiments in mt-EGFR, mt-KRAS, and mt-BRAF driven tumors. […] Thus, it is believed that ODDER compounds, such as Compound A, can be used in combination with radiation to treat localized tumors which express either mutant KRAS or mutant BRAF. […] Other ODDER compounds are also expected to have similar lower on target toxicity.

[3] = On target toxicity compared with EGFR inhibitors
xCT = assay: Loss of EGFR-chaperoned transporter xCT from cells; type: cell-based; conditions: along with EGFR
From the text: (§2) It was reasoned that the activity seen in these susceptible tumor lines was largely due to EGFR KIFs. Tumors cells are always metabolically stressed, and in actual tumors poor circulation makes the stress even more severe on the tumor interior, which is usually hypoxic once the tumor has growth to more than 100 mm^3. […] As tumor cells try to run in […] glycolysis, they have a much larger glucose requirement than normal cells, and any hindrance of glucose import would be expected to stress cells, pushing them away from aerobic glycolysis, and towards oxidative phosphorylation to produce ATP, which in turn would almost certainly increase production of reactive oxygen intermediates (ROI) in these already abnormally metabolizing cells. The most common ways of disposing of ROI are via conjugation with glutathione, or reaction with various reducing enzymes, most of which rely on cysteine thiols for their RedOx ability. Both of these mechanisms require stressed cells to be able to import large amounts of cysteine, much of which is produced by the liver and put into circulation, as the high demand totally overwhelms endogenous cysteine biosynthesis (which requires methionine as its source of sulfur). […]

[4] = test system: osimertinib-resistant PC9 non-small cell lung cancer xenografts; assay: PC9 xenograft, Compound A with or without radiation, tumor volume; type: in vivo, mice
Description: as §1

[5] = test system: tumors driven by mt-KRAS or mt-BRAF; assay: NC160 Tumor Cell panel; type: cell-based; conditions: several tumors driven by mt-KRAS or mt-BRAF
SGLT1 = assay: Loss of EGFR-chaperoned transporter SGLT1 from cells; type: cell-based; conditions: along with EGFR
From the text: as §2

EGFR = target: T1, EGFR (Homo sapiens, UniProt P00533); assay: Loss/depletion of EGFR from treated tumor cells; type: cell-based
T1 construct: they all coexpress wild-type (wt)—EGFR along with the KRAS or BRAF oncogene; endogenous in cells
T1 sequence (P00533 25-1210): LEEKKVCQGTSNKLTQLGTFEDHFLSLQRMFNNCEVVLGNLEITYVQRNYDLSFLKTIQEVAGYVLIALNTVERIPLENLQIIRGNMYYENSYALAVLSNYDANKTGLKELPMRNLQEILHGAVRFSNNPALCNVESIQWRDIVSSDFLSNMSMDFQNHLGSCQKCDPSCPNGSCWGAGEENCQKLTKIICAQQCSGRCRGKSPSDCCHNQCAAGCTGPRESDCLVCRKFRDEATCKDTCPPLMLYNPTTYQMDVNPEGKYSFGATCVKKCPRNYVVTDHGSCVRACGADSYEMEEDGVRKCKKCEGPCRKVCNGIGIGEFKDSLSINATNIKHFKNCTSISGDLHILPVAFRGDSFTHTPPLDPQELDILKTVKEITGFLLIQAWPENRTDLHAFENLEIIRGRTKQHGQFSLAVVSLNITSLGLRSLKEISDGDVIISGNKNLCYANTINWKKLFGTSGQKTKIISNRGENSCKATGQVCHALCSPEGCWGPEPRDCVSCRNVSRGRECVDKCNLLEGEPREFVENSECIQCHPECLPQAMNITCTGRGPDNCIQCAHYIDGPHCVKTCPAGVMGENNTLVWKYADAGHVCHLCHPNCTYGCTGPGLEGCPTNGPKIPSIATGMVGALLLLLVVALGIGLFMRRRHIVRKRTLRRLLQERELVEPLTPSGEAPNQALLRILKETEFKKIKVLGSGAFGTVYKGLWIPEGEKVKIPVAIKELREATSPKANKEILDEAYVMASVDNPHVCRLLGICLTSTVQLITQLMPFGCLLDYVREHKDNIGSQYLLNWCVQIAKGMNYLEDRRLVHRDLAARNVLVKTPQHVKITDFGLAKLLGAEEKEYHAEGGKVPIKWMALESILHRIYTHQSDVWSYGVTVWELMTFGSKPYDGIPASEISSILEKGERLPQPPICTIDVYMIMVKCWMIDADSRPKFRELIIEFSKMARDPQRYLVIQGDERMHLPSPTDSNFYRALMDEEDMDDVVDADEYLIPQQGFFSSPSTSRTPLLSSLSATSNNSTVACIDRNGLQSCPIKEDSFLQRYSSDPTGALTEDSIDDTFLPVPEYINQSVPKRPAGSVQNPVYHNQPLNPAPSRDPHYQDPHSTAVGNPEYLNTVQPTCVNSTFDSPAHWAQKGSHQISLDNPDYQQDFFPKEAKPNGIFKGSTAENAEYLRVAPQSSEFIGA
From the text: However, binding of ODDERs to EGFR prevents activated EGFR from forming the stable molecular complexes required to protect them from being rapidly internalized and degraded by the normal cellular protein degradation mechanisms, which is exactly what these molecules were designed to do. […] The kinase catalytic domain then unbinds both the product, a tyrosyl phosphate monoester, and the byproduct ADP, and can then bind further ATP and substrate as the catalytic cycle continues. There appear to be two major uses for tyrosine phosphorylation in a substrate molecule. The first is that conformational changes in the substrate protein are often driven by the conversion of a neutral, somewhat hydrophobic, tyrosine side chain into a highly hydrophilic phosphotyrosine, with two negative charges at physiological pH. The second is that there are binding sites on many proteins for phosphotyrosine residues, which induce new protein-protein interactions for the substrate protein, frequently changing its cellular localization and/or allowing it to assemble into new multiprotein complexes, both of which can lead the substrate protein to show very different activities after phosphorylation. […] This recruits the intermediate proteins which lead to the activation of the before mentioned signaling cascades. […]

[6] = test system: UMSCC74B KRAS G12D head and neck squamous cell carcinoma tumor; assay: UMSCC74B xenograft, Compound A with or without radiation, tumor volume; type: in vivo, mice; conditions: mt-KRAS UMSCC74B; 30 mg/kg biw for 2 weeks oral; 2 GY/day five days a week for 3 weeks

In the case of `CN1CCC2(CC1)N=C(SCC(=O)Nc1cnc3ccccc3c1)C(c1ccc(Br)cc1)=N2` [Compound A], the “anti-tumor effect of Compound A combined with radiation (tumor volume)” value (“anti-tumor effect of Compound A combined” below) [1] was “unexpectedly exhibited efficacy; also recorded: strongly increased”, the “H2O2 levels, dose dependence” value ([2]; increasing amounts of compound) was “dose-dependent increase” and the “increase in cellular H2O2 levels” value ([2]; top dose tested) was 2-4 fold. For the same molecule, the on target toxicity [3] was “much less on target toxicity than EGFR inhibitors”, the “ablation of xCT transporter” value (xCT) was “ablated along with EGFR” and the “active tumor by gross pathology or histochemistry” value ([4]; Day 155, end of experiment, treatment group not named, presumably combination) was “active tumor could not be detected”. The “anti-tumor effect of Compound A combined” value ([4]; mt-EGFR PC9, 75 mg/kg five times a week for 3 weeks oral, 2 Gy/day five times a week for 3 weeks) was “unexpectedly exhibited efficacy; also recorded: strongly increased”, the anti-proliferative activity [5] was “considerable anti-proliferative activity” and the “ablation of SGLT1 transporter” value (SGLT1) was “ablated along with EGFR”. The “loss of EGFR from the cell surface” value (EGFR) was “loss of EGFR from the cell surface” and the “anti-tumor effect of Compound A combined” value [6] was “unexpectedly exhibited efficacy; also recorded: strongly increased”.
